# Laboratory results published in EP0554004A2, “Cephem compounds and antibacterial agents” (KATAYAMA SEIYAKUSYO CO. Ltd., priority 1992, dated 1993).
# Assays:
# E. coli NIHJ JC-2 = assay: MIC against standard strains (Test Example 3); type: cell-based; conditions: Escherichia coli, NIHJJC2; E. coli NIHJ JC-2 (Test Example 3); read-out: MIC
# Protocol: (§1) By using each test strain cultured overnight at 37°C in a Muller-Hinton broth, there was prepared a bacterial solution with a bacterial cell population of 1 x 10^6 CFU/mi of the same bouillon. The bacterial solution was inoculated into the Muller-Hinton agar media each containing respectively one test agent and, after overnight incubation at 37°C, the minimum concentration that inhibited growth of the bacteria was determined and shown as MIC also in Table 1.
# (§2) The minimum growth inhibitory concentration was determined for each of the 21 standard strains shown in Table 3, according to the same method as used in Test Example 1.
# (§3) In the test, FMOX (flomoxef), CTM (cefotiam) and CEZ (cefazolin) were used as control agents.
# A. calcoaceticos T59 = assay: MIC against standard strains (Test Example 3); type: cell-based; conditions: A. calcoaceticos T59 (Test Example 3); read-out: MIC
# Protocol: as §1, §2, §3
# K. pneumoniae No. 42 = assay: MIC against standard strains (Test Example 3); type: cell-based; conditions: Klebsiella pneumoniae; K. pneumoniae No. 42 (Test Example 3); read-out: MIC
# Protocol: as §1, §2, §3
# P. mirabilis IFO3849 = assay: MIC against standard strains (Test Example 3); type: cell-based; conditions: Proteus mirabilis; P. mirabilis IFO3849 (Test Example 3); read-out: MIC
# Protocol: as §1, §2, §3
# P. aeruginosa NCTC10490 = assay: MIC against standard strains (Test Example 3); type: cell-based; conditions: Pseudomonas aeruginosa; P. aeruginosa NCTC10490 (Test Example 3); read-out: MIC
# Protocol: as §1, §2, §3
# S. aureus Smith = assay: MIC against standard strains (Test Example 3); type: cell-based; conditions: Staphylococcus aureus; S. aureus Smith (Test Example 3); read-out: MIC
# Protocol: as §1, §2, §3
# S. aureus 209p JC-1 = assay: MIC against standard strains (Test Example 3); type: cell-based; conditions: Staphylococcus aureus; S. aureus 209p JC-1 (Test Example 3); read-out: MIC
# Protocol: as §1, §2, §3
# S. marcescens IAM1184 = assay: MIC against standard strains (Test Example 3); type: cell-based; conditions: Serratia marcescens; S. marcescens IAM1184 (Test Example 3); read-out: MIC
# Protocol: as §1, §2, §3
# S. epidemidis IAM1296 = assay: MIC against standard strains (Test Example 3); type: cell-based; conditions: S. epidemidis IAM1296 (Test Example 3); read-out: MIC
# Protocol: as §1, §2, §3
# A. faecalis ATCC3750 = assay: MIC against standard strains (Test Example 3); type: cell-based; conditions: Alcaligenes faecalis; A. faecalis ATCC3750 (Test Example 3); read-out: MIC
# Protocol: as §1, §2, §3
# P. vulugaris OX-19 = assay: MIC against standard strains (Test Example 3); type: cell-based; conditions: P. vulugaris OX-19 (Test Example 3); read-out: MIC
# Protocol: as §1, §2, §3
# C. freundii ATCC8090 = assay: MIC against standard strains (Test Example 3); type: cell-based; conditions: Citrobacter freundii; C. freundii ATCC8090 (Test Example 3); read-out: MIC
# Protocol: as §1, §2, §3
# S. aureus 195 = assay: MIC against standard strains (Test Example 3); type: cell-based; conditions: Staphylococcus aureus; S. aureus 195 (MRSA) (Test Example 3); read-out: MIC
# Protocol: as §1, §2, §3
# S. aureus 167 = assay: MIC against standard strains (Test Example 3); type: cell-based; conditions: Staphylococcus aureus; S. aureus 167 (MRSA) (Test Example 3); read-out: MIC
# Protocol: as §1, §2, §3
# E. coli CSH2 (RE45) = assay: MIC against standard strains (Test Example 3); type: cell-based; conditions: Escherichia coli
# Protocol: as §1, §2, §3
# E. coli CSH2 (RK1) = assay: MIC against standard strains (Test Example 3); type: cell-based; conditions: Escherichia coli
# Protocol: as §1, §2, §3
# K. pneumoniae IFO3317 = assay: MIC against standard strains (Test Example 3); type: cell-based; conditions: Klebsiella pneumoniae; K. pneumoniae IFO3317 (Test Example 3); read-out: MIC
# Protocol: as §1, §2, §3
# B. subtilis ATCC6633 = assay: MIC against standard strains (Test Example 3); type: cell-based; conditions: Bacillus subtilis; B. subtilis ATCC6633 (Test Example 3); read-out: MIC
# Protocol: as §1, §2, §3
# E. cloacae ATCC13407 = assay: MIC against standard strains (Test Example 3); type: cell-based; conditions: Enterobacter cloacae; E. cloacae ATCC13407 (Test Example 3); read-out: MIC
# Protocol: as §1, §2, §3
# M. Morganii IFO3848 = assay: MIC against standard strains (Test Example 3); type: cell-based; conditions: Morganella morganii; M. Morganii IFO3848 (Test Example 3); read-out: MIC
# Protocol: as §1, §2, §3
# M. luteus ATCC 9341 = assay: MIC against standard strains (Test Example 3); type: cell-based; conditions: Micrococcus luteus, ATCC9341; M. luteus ATCC 9341 (Test Example 3); read-out: MIC
# Protocol: as §1, §2, §3
# clinically isolated MRSA [1] = assay: Antibacterial potency against clinically isolated MRSA (Test Example 4); type: cell-based, methicillin-resistant Staphylococcus aureus; conditions: Staphylococcus aureus
# Protocol: (§4) 52 strains of clinically isolated MRSA were used, and MIC was determined for each of the strains according to the standard method of the Japan Chemotherapical Society as in Test Example 1. The minimum growth inhibitory concentration which inhibited growth of 50% of the strains tested was expressed as MIC50 (µg/ml), and the minimum growth inhibitory concentration which inhibited growth of 90% of the strains was expressed as MIC90 (µg/ml).
# MIC 50 and MIC 90 were determined for each of the 52 strains of clinically isolated MRSA according to the same method as used in Test Example 2.
# VCM (vancomycin) was used as control agent.
# clinically isolated MRSA [2] = assay: Antibacterial potency against clinically isolated MRSA (Test Example 2); type: cell-based, methicillin-resistant Staphylococcus aureus; conditions: Staphylococcus aureus, 52 strains of clinically isolated MRSA
# Protocol: A test on the antibacterial potency against clinically isolated MRSA was conducted in the following way.
# as §4
# In this test, FMOX (flomoxef), IPM/CS (imipenem/cilastatin), CMZ (cefmetazole), MINO (minocycline) and DMPPC (methicillin) were used as control agents.
# [3] = 52 strains of clinically isolated MRSA, concentration inhibiting growth of 50% of the strains (Test Example 4), read-out: MIC50
# [4] = 52 strains of clinically isolated MRSA, concentration inhibiting growth of 90% of the strains (Test Example 4), read-out: MIC90
Structure (SMILES),MIC (E. coli NIHJ JC-2),MIC (A. calcoaceticos T59),MIC (K. pneumoniae No. 42),MIC (P. mirabilis IFO3849),MIC (P. aeruginosa NCTC10490),MIC (S. aureus Smith),MIC (S. aureus 209p JC-1),MIC (S. marcescens IAM1184),MIC (S. epidemidis IAM1296),MIC (A. faecalis ATCC3750),MIC (P. vulugaris OX-19),MIC (C. freundii ATCC8090),MIC (S. aureus 195),MIC (S. aureus 167),MIC (E. coli CSH2 (RE45)),MIC (E. coli CSH2 (RK1)),MIC (K. pneumoniae IFO3317),MIC (B. subtilis ATCC6633),MIC (E. cloacae ATCC13407),MIC (M. Morganii IFO3848),further results
"Cc1nnc(SCC2=C(C(=O)O)N3C(=O)[C@@H](NC(=O)Cn4cnnn4)[C@H]3SC2)s1 [CEZ, cefazolin, reference compound]",1.56 µg/mL,> 100 µg/mL,3.13 µg/mL,6.25 µg/mL,> 100 µg/mL,0.2 µg/mL,0.2 µg/mL,> 100 µg/mL,0.1 µg/mL,12.5 µg/mL,12.5 µg/mL,3.13 µg/mL,50 µg/mL,100 µg/mL,1.56 µg/mL,3.13 µg/mL,0.78 µg/mL,0.2 µg/mL,> 100 µg/mL,25 µg/mL,MIC (M. luteus ATCC 9341): 0.78 µg/mL
"CNC(=O)c1ccc[n+](CC2=C(C(=O)[O-])N3C(=O)[C@@H](NC(=O)/C(=N\O)c4csc(N)n4)[C@H]3SC2)c1 [Compound (6), 7β-[2-(2-aminothiazol-4-I)-2-syn-hydroxyiminoacetamido]-3-[(3-N-methylcarbamoyl)-1-pyridinio)methyl]-3-cephem-4-carboxylic acid chloride]",0.39 µg/mL,12.5 µg/mL,0.78 µg/mL,0.39 µg/mL,3.13 µg/mL,0.78 µg/mL,0.39 µg/mL,0.39 µg/mL,0.2 µg/mL,3.13 µg/mL,0.78 µg/mL,0.39 µg/mL,3.13 µg/mL,12.5 µg/mL,0.78 µg/mL,1.56 µg/mL,0.39 µg/mL,0.78 µg/mL,1.56 µg/mL,0.2 µg/mL,MIC (M. luteus ATCC 9341): 0.1 µg/mL; MIC50 (clinically isolated MRSA [1]; [3]): 2.15 µg/mL; MIC90 (clinically isolated MRSA [1]; [4]): 7.18 µg/mL
"CCN(CC)C(=O)c1ccc[n+](CC2=C(C(=O)[O-])N3C(=O)[C@@H](NC(=O)/C(=N\O)c4csc(N)n4)[C@H]3SC2)c1 [Compound (14), 7β-[2-(2-aminothiazol-4-yl)-2-syn-hydroxyiminoacetamido]-3-[(3-N,N-diethylcarbamoyl-I-pyridinio)methyl]-3-cephem-4-carboxylic acid chloride]",0.78 µg/mL,12.5 µg/mL,3.13 µg/mL,1.56 µg/mL,6.25 µg/mL,0.78 µg/mL,0.78 µg/mL,0.78 µg/mL,0.39 µg/mL,3.13 µg/mL,0.78 µg/mL,0.78 µg/mL,6.25 µg/mL,12.5 µg/mL,0.78 µg/mL,3.13 µg/mL,0.78 µg/mL,0.39 µg/mL,3.13 µg/mL,0.39 µg/mL,MIC (M. luteus ATCC 9341): 0.2 µg/mL; MIC50 (clinically isolated MRSA [1]; [3]): 6.77 µg/mL; MIC90 (clinically isolated MRSA [1]; [4]): 11.8 µg/mL
"COc1cccc(OC)c1C(=O)N[C@@H]1C(=O)N2[C@@H]1SC(C)(C)[C@@H]2C(=O)O [DMPPC, methicillin, reference compound]",,,,,,,,,,,,,,,,,,,,,MIC50 (clinically isolated MRSA [2]; concentration inhibiting growth of 50% of the strains (Test Example 2)): 42.5 µg/mL; MIC90 (clinically isolated MRSA [2]; concentration inhibiting growth of 90% of the strains (Test Example 2)): > 100 µg/mL
"CN[C@H](CC(C)C)C(=O)N[C@H]1C(=O)N[C@@H](CC(N)=O)C(=O)N[C@H]2C(=O)N[C@H]3C(=O)N[C@H](C(=O)N[C@H](C(=O)O)c4cc(O)cc(O)c4-c4cc3ccc4O)[C@H](O)c3ccc(c(Cl)c3)Oc3cc2cc(c3O[C@@H]2O[C@H](CO)[C@@H](O)[C@H](O)[C@H]2O[C@H]2C[C@](C)(N)[C@H](O)[C@H](C)O2)Oc2ccc(cc2Cl)[C@H]1O [VCM, vancomycin, reference compound]",,,,,,,,,,,,,,,,,,,,,MIC50 (clinically isolated MRSA [1]; MRSA): 0.74 µg/mL; MIC90 (clinically isolated MRSA [1]; MRSA): 1.38 µg/mL
